Test results published in PubChem BioAssay (NCI).
Several values for one entry are separate records, joined by “and”; a condition that tells them apart may be missing. Equal values may be shown once.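 Grown in 96-well plates, cells were treated for 48 hours with each compound at five concentrations. Insufficient inhibition: endpoint recorded as highest concentration tested. GI50 is the concentration that inhibits growth by half. TGI marks complete inhibition of growth.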 Where a SMILES comes first, the peptide text is derived from it. The star is where a group is joined. Boc = CC(C)(C)OC(=O)*

These compounds were tested on KM20L2 colon (assay: growth of human tumour cells (NCI), 48 h).

Compared with `O=C1CCC(=O)c2c1c(O)c1ccncc1c2O`, `CC1(C)CC(=O)CC(=Nc2ccc([N+](=O)[O-])cc2)C1` is higher in TGI: 49.8 µM for the first, greater than 100 µM for the second.

Compared with `C=CCN1CCC23c4c5ccc(O)c4OC2C(=NN=C2CCC4(O)C6Cc7ccc(O)c8c7C4(CCN6CC=C)C2O8)CCC3(O)C1C5` (stereo not given), `COc1cc2c3c(c1OC)-c1cc4c(cc1CC3(C#N)N(C(=O)c1ccccc1)CC2)OCO4` (stereo not given) is higher in TGI: 47.8 µM for the first, greater than 100 µM for the second.

Going from `CN(C)CCNC(=O)c1cccc2c(Nc3ccc(S(=O)(=O)N=C(N)N)cc3)c3ccccc3nc12` to `COC(=O)C1=C(C(=O)OC)C2=S(SC3=C2CCCC3)S1` (stereo not given), the TGI falls from greater than 100 µM to 76.5 µM.

What follows are compounds tested on HCC-2998 colon (assay: growth of human tumour cells (NCI), 48 h).

`Cn1cnnc1Sc1c([N+](=O)[O-])ncn1C` and `CC1(C)CC(=O)CC(=Nc2ccc([N+](=O)[O-])cc2)C1` cannot be ordered by TGI: greater than 100 µM for the first, greater than 100 µM for the second.

`C=CCC1(CN(C)C)CC/C(=C\c2ccc(Cl)cc2)C1=O` (stereo not given) and `CC(=O)N1CCC(=O)/C(=C/c2ccccc2)C1` cannot be ordered by TGI: greater than 70.5 µM for the first, greater than 100 µM for the second.

First: C[Si](C)(C)/C(Br)=C\CCN1C(=O)CCC1=O
Second: O=C1CCC(=O)c2c1c(O)c1ccncc1c2O
The TGI of the first is higher: greater than 100 µM for the first, 29.6 µM for the second.

Compared with `Cc1ccc(S(=O)OCc2c(C)c(C)c(COS(=O)c3ccc(C)cc3)c(C)c2C)cc1` (stereo not given), `COC(=O)C1=CN(CC2=CC(=O)C(C)=CC2=O)C=C(C(=O)OC)C1c1cccc(OC)c1` is lower in TGI: greater than 100 µM for the first, 32.6 µM for the second.

`C[C@]12CCC(=O)C=C1CC[C@@H]1C2CC[C@]2(C)Nc3[nH]ncc3CC12` (stereo not given in full) and `CC(C)(C)[Si](C)(C)OC1C(=O)C[C@H]2CCCC[C@@H]12` (stereo not given in full) cannot be ordered by TGI: greater than 100 µM for the first, greater than 100 µM for the second.

`CCN(CC)CCSc1c2ccccc2nc2c(OC)ccc(OC)c12` and `COc1cc2c3c(c1OC)-c1cc4c(cc1CC3(C#N)N(C(=O)c1ccccc1)CC2)OCO4` (stereo not given) cannot be ordered by TGI: greater than 36 µM for the first, greater than 100 µM for the second.

`[N-]=[N+]=N/C1=C/CCCCC(=O)C1` and `COC(=O)C1=C(C(=O)OC)C2=S(SC3=C2CCCC3)S1` (stereo not given) cannot be ordered by TGI: greater than 100 µM for the first, greater than 100 µM for the second.

Going from `C=COC(=O)N[C@H]1CCc2cc(OC)c(OC)c(OC)c2-c2ccc(SC)c(=O)cc21` to `CCOC(=O)C1SC(=Nc2ccccc2)N=C1C` (stereo not given), the TGI rises from 85.6 µM to greater than 100 µM.

`Cc1ccc(NC(=O)CCc2nnc(N)o2)cc1` and `Nc1c(C(=O)c2ccccc2)cnn1-c1ccc(F)cc1` cannot be ordered by TGI: greater than 100 µM for the first, greater than 25 µM for the second.

First: CSc1nc(NC2OC(COC(C)=O)C(OC(C)=O)C(OC(C)=O)C2OC(C)=O)c(N=CC=Nc2c(NC3OC(COC(C)=O)C(OC(C)=O)C(OC(C)=O)C3OC(C)=O)nc(SC)n(C)c2=O)c(=O)n1C (stereo not given)
Second: C=CCN1CCC23c4c5ccc(O)c4OC2C(=NN=C2CCC4(O)C6Cc7ccc(O)c8c7C4(CCN6CC=C)C2O8)CCC3(O)C1C5 (stereo not given)
The TGI of the first is higher: greater than 100 µM for the first, 43.2 µM for the second.

In the case of `O=C(NNc1ccccc1)C(=O)NNc1ccccc1`, the TGI is reported as greater than 100 µM.

In the case of `COc1ccc2c(c1)c[n+](C)c1c3cc(OC)c(OC)cc3ccc21`, the GI50 is reported as 1.86 µM and 7.34 µM.

With `COc1ccc2c(c1)c[n+](C)c1c3cc(OC)c(OC)cc3ccc21` the TGI was 3.71 µM and 19.9 µM.
With `Nc1ccn(C2OC(CO)C(O)C2O)c(=O)n1` (stereo not given) the TGI was > 100 µM and 429 µM and > 500 µM.
`COC(=O)C(C)NC(=O)C(CCSC)NC(=O)C(Cc1ccccc1)NC(=O)OC(C)(C)C` (stereo not drawn) (Boc-Phe-Met-Ala-OMe; configuration not given here) was tested, and the TGI was 36.4 µg/mL and > 100 µM.
For `C/C(=N\NC(=S)N1CCCCCC1)c1ccccn1`, the TGI was 2.03 µM and 1.35 µM.

First: CSc1nc(NC2OC(COC(C)=O)C(OC(C)=O)C(OC(C)=O)C2OC(C)=O)c(N=CC=Nc2c(NC3OC(COC(C)=O)C(OC(C)=O)C(OC(C)=O)C3OC(C)=O)nc(SC)n(C)c2=O)c(=O)n1C (stereo not given)
Second: COC(=O)C1=CN(CC2=CC(=O)C(C)=CC2=O)C=C(C(=O)OC)C1c1cccc(OC)c1
The GI50 of the first is higher: greater than 50 µM for the first, 12.5 µM for the second.

Going from `Nc1ccn(C2OC(CO)C(O)C2O)c(=O)n1` (stereo not given) to `Nc1c(C(=O)c2ccccc2)cnn1-c1ccc(F)cc1`, the GI50 rises from 1.69 µM to greater than 25 µM.

Going from `O=C(NNc1ccccc1)C(=O)NNc1ccccc1` to `C/C(=N\NC(=S)N1CCCCCC1)c1ccccn1`, the GI50 falls from 2.96 µM to 0.0374 µM (79-fold).

Compound `COC(=O)C(C)NC(=O)C(CCSC)NC(=O)C(Cc1ccccc1)NC(=O)OC(C)(C)C` (stereo not drawn) (Boc-Phe-Met-Ala-OMe; configuration not given here) has a GI50 of 20.1 µg/mL.

Each compound was assayed on DU-145 prostate (assay: growth of human tumour cells (NCI), 48 h).

`COc1ccc2c(c1)c[n+](C)c1c3cc(OC)c(OC)cc3ccc21` was tested, and the GI50 was 3.1 µM and 8.21 µM.

For `COc1ccc2c(c1)c[n+](C)c1c3cc(OC)c(OC)cc3ccc21`, the TGI was 11.4 µM and 21.3 µM.
`C/C(=N\NC(=S)N1CCCCCC1)c1ccccn1` was tested, and the TGI was 6.29 µM and 3.25 µM.

Going from `C=COC(=O)N[C@H]1CCc2cc(OC)c(OC)c(OC)c2-c2ccc(SC)c(=O)cc21` to `COc1cc2c3c(c1OC)-c1cc4c(cc1CC3(C#N)N(C(=O)c1ccccc1)CC2)OCO4` (stereo not given), the TGI rises from less than 0.01 µM to greater than 100 µM.

Going from `CSc1nc(NC2OC(COC(C)=O)C(OC(C)=O)C(OC(C)=O)C2OC(C)=O)c(N=CC=Nc2c(NC3OC(COC(C)=O)C(OC(C)=O)C(OC(C)=O)C3OC(C)=O)nc(SC)n(C)c2=O)c(=O)n1C` (stereo not given) to `COC(=O)C1=CN(CC2=CC(=O)C(C)=CC2=O)C=C(C(=O)OC)C1c1cccc(OC)c1`, the TGI falls from greater than 100 µM to 33.3 µM.

`O=C(NNc1ccccc1)C(=O)NNc1ccccc1` and `Nc1c(C(=O)c2ccccc2)cnn1-c1ccc(F)cc1` cannot be ordered by TGI: greater than 100 µM for the first, greater than 25 µM for the second.

For `COC(=O)C(C)NC(=O)C(CCSC)NC(=O)C(Cc1ccccc1)NC(=O)OC(C)(C)C` (stereo not drawn) (Boc-Phe-Met-Ala-OMe; configuration not given here), the TGI was greater than 100 µM.

Compared with `CSc1nc(NC2OC(COC(C)=O)C(OC(C)=O)C(OC(C)=O)C2OC(C)=O)c(N=CC=Nc2c(NC3OC(COC(C)=O)C(OC(C)=O)C(OC(C)=O)C3OC(C)=O)nc(SC)n(C)c2=O)c(=O)n1C` (stereo not given), `COC(=O)C1=CN(CC2=CC(=O)C(C)=CC2=O)C=C(C(=O)OC)C1c1cccc(OC)c1` is lower in GI50: greater than 50 µM for the first, 16.4 µM for the second.

Compared with `Nc1ccn(C2OC(CO)C(O)C2O)c(=O)n1` (stereo not given), `Nc1c(C(=O)c2ccccc2)cnn1-c1ccc(F)cc1` is higher in GI50: 0.536 µM for the first, greater than 25 µM for the second.

Going from `O=C(NNc1ccccc1)C(=O)NNc1ccccc1` to `C/C(=N\NC(=S)N1CCCCCC1)c1ccccn1`, the GI50 falls from 20.8 µM to 0.408 µM (51-fold).

`COC(=O)C(C)NC(=O)C(CCSC)NC(=O)C(Cc1ccccc1)NC(=O)OC(C)(C)C` (stereo not drawn) (Boc-Phe-Met-Ala-OMe; configuration not given here) showed a GI50 of 43.7 µg/mL.

What follows are compounds tested on LXFL 529 NSCLC (assay: growth of human tumour cells (NCI), 48 h).

`Cn1cnnc1Sc1c([N+](=O)[O-])ncn1C` and `CCN(CC)CCSc1c2ccccc2nc2c(OC)ccc(OC)c12` cannot be ordered by TGI: 63 µM for the first, greater than 21.3 µM for the second.

First: C=CCC1(CN(C)C)CC/C(=C\c2ccc(Cl)cc2)C1=O (stereo not given)
Second: CC(=O)N1CCC(=O)/C(=C/c2ccccc2)C1
The TGI of the first is higher: greater than 74.8 µM for the first, 47.2 µM for the second.

`C[Si](C)(C)/C(I)=C/CO` and `C[Si](C)(C)/C(Br)=C\CCN1C(=O)CCC1=O` cannot be ordered by TGI: greater than 100 µM for the first, greater than 100 µM for the second.

`C[N+](C)(C)CC1CCC/C1=N\OC(=O)c1ccccc1` (stereo not given) and `CCOC(=O)C1SC(=Nc2ccccc2)N=C1C` (stereo not given) cannot be ordered by TGI: greater than 100 µM for the first, greater than 100 µM for the second.

`Cc1ccc(S(=O)OCc2c(C)c(C)c(COS(=O)c3ccc(C)cc3)c(C)c2C)cc1` (stereo not given) and `CCOC(=O)c1ccc(N=Nc2cc(C(=O)OCC)ccc2O)cc1` cannot be ordered by TGI: greater than 100 µM for the first, greater than 100 µM for the second.

`C[C@]12CCC(=O)C=C1CC[C@@H]1C2CC[C@]2(C)Nc3[nH]ncc3CC12` (stereo not given in full) and `CC(C)(C)[Si](C)(C)OC1C(=O)C[C@H]2CCCC[C@@H]12` (stereo not given in full) cannot be ordered by TGI: greater than 100 µM for the first, greater than 100 µM for the second.

Compared with `COc1ccc2c(c1)c[n+](C)c1c3cc(OC)c(OC)cc3ccc21`, `C=COC(=O)N[C@H]1CCc2cc(OC)c(OC)c(OC)c2-c2ccc(SC)c(=O)cc21` is higher in TGI: 7.25 µM for the first, greater than 100 µM for the second.

Going from `[N-]=[N+]=N/C1=C/CCCCC(=O)C1` to `O=C1CCC(=O)c2c1c(O)c1ccncc1c2O`, the TGI falls from greater than 100 µM to 30.2 µM.

`Cc1ccc(NC(=O)CCc2nnc(N)o2)cc1` and `Nc1ccn(C2OC(CO)C(O)C2O)c(=O)n1` (stereo not given) cannot be ordered by TGI: greater than 100 µM for the first, greater than 500 µM for the second.

With `CSc1nc(NC2OC(COC(C)=O)C(OC(C)=O)C(OC(C)=O)C2OC(C)=O)c(N=CC=Nc2c(NC3OC(COC(C)=O)C(OC(C)=O)C(OC(C)=O)C3OC(C)=O)nc(SC)n(C)c2=O)c(=O)n1C` (stereo not given) the TGI was greater than 100 µM.
